Test results taken from patent US8697656B2, “Compounds, in particular peptides, compositions comprising them and cosmetic and dermo-pharmaceutical uses” (SEDERMA, priority 2009, dated 2014).
Non-standard residues stand in square brackets, D forms with d. Residues, ends and D or L forms follow the SMILES beside them. *: point of attachment. Met(O2) = CS(=O)(=O)CC[CH](N)C(=O)O; Palmitoyl = CCCCCCCCCCCCCCCC(=O)*; Ava = NCCCCC(=O)O

Key:
dermal NHF = experiment: Immunostaining method for collagen I on dermal NHF (Table 7); type: cell-based, human; conditions: Table 7 Test 2
Text: Table 7 Showing % Differences in Collagen I in the Dermis Compared to the Control for Dioxygenated Peptide Compounds According to the Immunostaining Method or to ELISA Test on Dermal NHF

[1] = test system: Normal human dermal fibroblasts (NHF); experiment: ELISA test on normal human dermal fibroblasts (NHF): macromolecules in culture supernatants; type: cell-based; conditions: Table 7 Test 1
Description: ELISA Test on Normal Human Dermal Fibroblasts (NHF)
This test examines the dermal molecules.
Normal human dermal fibroblasts are cultured in multi-well plates. The cells either are or are not placed in contact with the test substances for 3 days. The culture supernatants are removed and the quantity of macromolecules present (collagen I, fibronectin, collagen IV and hyaluronic acid) is assayed by ELISA.

Row | Compound | Collagen I in the dermis, Test 2 (% difference compared to the control) (dermal NHF; 2 ppm) | Collagen I in the dermis, Test 2 (% difference compared to the control) (dermal NHF; 4 ppm) | Collagen I in the dermis, Test 2 (% difference compared to the control) (dermal NHF; 6 ppm) | Collagen I in the dermis, Test 1 (% difference compared to the control) ([1]; 2 ppm) | Collagen I in the dermis, Test 1 (% difference compared to the control) ([1]; 4 ppm) | Collagen I in the dermis, Test 1 (% difference compared to the control) ([1]; 6 ppm)
1 | CCCCCCCCCCCCCCCC(=O)NCCCCC(=O)NC(CCS(C)(=O)=O)C(N)=O (stereo not drawn) [Pal-Ava-MO2-NH2] | +495% | +667% | +557% | – | – | –
2 | CCCCCCCCCCCCCCCC(=O)NC(CCS(C)(=O)=O)C(=O)NCCCCC(N)=O (stereo not shown) [Pal-MO2-Ava-NH2] | +375% | +582% | +461% | – | – | –
3 | CCCCCCCCCCCCCCCC(=O)NC(CCS(C)(=O)=O)C(=O)NC(CCCCN)C(=O)O (stereo not shown) [Pal-MO2-K-OH] (Palmitoyl-[Met(O2)]-Lys-OH; configuration not given here) | +270% | +457% | +226% | – | – | –
4 | Pal-K-Ava-MO2-K-OH: Dioxygenated peptide compound, SEQ ID NO 35 (Palmitoyl-K[Ava][Met(O2)]K-OH; SMILES CCCCCCCCCCCCCCCC(=O)N[C@@H](CCCCN)C(=O)NCCCCC(=O)N[C@@H](CCS(C)(=O)=O)C(=O)N[C@@H](CCCCN)C(=O)O) | – | – | – | +63% | +167% | –
5 | Pal-K-F-MO2-K-OH: Dioxygenated peptide compound, SEQ ID NO 31 (Palmitoyl-KF[Met(O2)]K-OH; SMILES CCCCCCCCCCCCCCCC(=O)N[C@@H](CCCCN)C(=O)N[C@@H](Cc1ccccc1)C(=O)N[C@@H](CCS(C)(=O)=O)C(=O)N[C@@H](CCCCN)C(=O)O) | – | – | – | – | +80% | +81%
6 | Pal-K-MO2-Ava-K-OH: Dioxygenated peptide compound, SEQ ID NO 36 (Palmitoyl-K[Met(O2)][Ava]K-OH; SMILES CCCCCCCCCCCCCCCC(=O)N[C@@H](CCCCN)C(=O)N[C@@H](CCS(C)(=O)=O)C(=O)NCCCCC(=O)N[C@@H](CCCCN)C(=O)O) | – | – | – | +75% | – | –
7 | Pal-K-MO2-F-K-OH: Dioxygenated peptide compound, SEQ ID NO 34 (Palmitoyl-K[Met(O2)]FK-OH; SMILES CCCCCCCCCCCCCCCC(=O)N[C@@H](CCCCN)C(=O)N[C@@H](CCS(C)(=O)=O)C(=O)N[C@@H](Cc1ccccc1)C(=O)N[C@@H](CCCCN)C(=O)O) | – | – | – | – | +91% | –
8 | Pal-K-MO2-T-K-OH: Dioxygenated peptide compound, SEQ ID NO 33 (Palmitoyl-K[Met(O2)]TK-OH; SMILES CCCCCCCCCCCCCCCC(=O)N[C@@H](CCCCN)C(=O)N[C@@H](CCS(C)(=O)=O)C(=O)N[C@H](C(=O)N[C@@H](CCCCN)C(=O)O)[C@@H](C)O) | – | +192% | +217% | – | +45% | +194%
9 | Pal-K-T-F-MO2-NH2: Dioxygenated peptide compound, SEQ ID NO 32 (Palmitoyl-KTF[Met(O2)]-NH2; SMILES CCCCCCCCCCCCCCCC(=O)N[C@@H](CCCCN)C(=O)N[C@H](C(=O)N[C@@H](Cc1ccccc1)C(=O)N[C@@H](CCS(C)(=O)=O)C(N)=O)[C@@H](C)O) | +267% | +420% | +400% | – | +106% | +121%
10 | Pal-K-T-MO2-K-OH: Dioxygenated peptide compound, SEQ ID NO 30 (Palmitoyl-KT[Met(O2)]K-OH; SMILES CCCCCCCCCCCCCCCC(=O)N[C@@H](CCCCN)C(=O)N[C@H](C(=O)N[C@@H](CCS(C)(=O)=O)C(=O)N[C@@H](CCCCN)C(=O)O)[C@@H](C)O) | +273% | +341% | +262% | – | +75% | +161%
11 | Pal-MO2-T-K-F-OH: Dioxygenated peptide compound, SEQ ID NO 29 | +218% | +456% | +520% | – | +111% | +148%
